Laboratory results reported in patent publication US10519179B2, “Highly efficient NRF2 activators-co-releasing molecule hybrids, their use in the treatment of inflammatory or cardiovascular diseases and their process of preparation” (Centre National de la Recherche Scientifique, priority 2015, dated 2019).
Entries after “also recorded” stand apart in the source; their conditions may differ. Where a name gives a salt, the structure may show the parent alone.

Key:
[1] = test system: IL-1β; assay: IL-1β production in LPS-treated human THP-1 cells (ELISA); format: cell-based; conditions: 5 μM, 24 h
Description: IL-1β production was measured in the supernatants of human THP-1 cells treated with LPS (100 μg/ml) in the presence or absence of 5 μM comp. C, DMF or CORM-401. After 24 h incubation, the medium was collected and IL-1β levels quantified using an ELISA kit (R&D Systems) following the manufacturer's instructions.

[2] = test system: HO-1; assay: HO-1 protein expression in human THP-1 cells; format: cell-based
Description: (§1) Human monocytes (THP-1 cells) were cultured in RPMI 1640-Glutamax medium supplemented with 1% penicillin/streptomycin, 1% sodium pyruvate and 10% fetal bovine serum (RPMIc). Cells at confluence were washed with PBS and treated with compound C at different concentrations for 6 h according to the experimental protocol. Compound C was dissolved in DMSO at 0.1% as a final concentration in complete medium.

[3] = test system: Nrf2; assay: nuclear expression of Nrf2 in BV2 microglia (Western blot); format: cell-based, mouse; conditions: cells and concentration not given
Description: (§2) Cells were grown in an atmosphere of 5% CO2 at 37° C. in either 75 cm^2 flasks, 100 mm diameter Petri dishes, 6- or 24-well plates containing medium supplemented with 10% fetal bovine serum (Lonza) and penicillin (100 U·mL^−1)/streptomycin ([…]; Life Technologies). BV2 mouse microglial cells were grown in RPMI-1640 containing 2 g·L^−1 glucose and supplemented with 0.3 g·L^−1 1-glutamine.
BV2 microglia were incubated with 10 μM of hybrids for 2 h to assess nuclear translocation of Nrf2. Nuclear fractions were isolated using a Nuclear Extract Kit from Active Motif (La Hulpe, Belgium), according to the manufacturer's instructions, and stored at −80° C. Protein concentrations were measured using a Pierce BCA Protein Assay kit (Thermo Scientific).
(§3) Whole cell lysates (20 μg protein/sample) were resolved on 12% acrylamide gels, respectively, and proteins transferred to polyvinylidene difluroride membranes (Millipore, Brussels, Belgium). […] Bands were detected with chemiluminescent substrates (Pierce ECL®, Thermo Scientific or RevelBIOt® Intense, Ozyme) and images captured using a G:Box F3 Imagery Station and GeneSys Software (Syngene, Cambridge, UK). […]

[4] = test system: H9c2 cardiomyocytes; assay: cytotoxicity (LDH assay) in H9c2 cardiomyocytes; format: cell-based, rat; conditions: 24 h, 20% or 5% oxygen, concentrations used
Description: (§4) Cytotoxicity was evaluated in THP-1 cells and H9c2 cardiomyocytes 24 h after incubation with increasing concentrations of compound C.
H9c2 cardiomyocytes were cultured as previously (Example 4.2).
(§5) Cell viability was assessed using the previously described LDH assay.

[5] = test system: HO-1; assay: HO-1 protein expression in H9c2 cardiomyocytes; format: cell-based, rat; conditions: 1 μM to 10 μM, 6 h or 24 h, 20% or 5% O2
Description: The assessment of HO-1 induction by western blotting was performed as previously (Example 4.1). H9C2 cells rat cardiomyocytes were cultured in Dubelcco's Modified Eagle Medium containing: glucose 4.5 g/l, L-glutamine 2 mM, pyruvate) supplemented with fetal bovine serum (FBS) 10%, a mixture of penicillin (10,000 IU/ml)/streptomycin (10 mg/ml) (Gibco Life Technologies) and sodium Pyruvate 1% (Gibco Life Technologies). Cells were grown and subcutlured either in a normal incubator at 20% O2 or in a dedicated chamber in which the O2 levels was kept constantly at 5%, a value which reflects more closely the O2 concentrations found in vivo. For the adaptation of cells at 5 O2, cells were grown and passaged at least twice before conducting any experiment.
H9c2 cardiomyocytes were then incubated with increasing concentration of compound C (1 μM to 10 μM) for 6 h or 24 h either at 20% or 5% O2.

[6] = test system: human THP-1 cells; assay: cytotoxicity (LDH assay) in THP-1 cells; format: cell-based; conditions: 24 h, increasing concentrations, up to 10 μM
Description: as §4
as §1, with “concentrations and” for “concentrations”, “different periods of time” for “6 h”
as §5

[7] = test system: Nrf2; assay: Nrf2 expression in human THP-1 cells; format: cell-based
Description: as §1

[8] = test system: HO-1; assay: HO-1 protein expression in BV2 microglia (Western blot); format: cell-based, mouse; conditions: cells and concentration not given
Description: as §2
To determine HO-1 protein expression, BV2 microglia were incubated with 10 μM hybrids (compounds) for 6 h. […] Protein concentrations were measured using a Pierce BCA Protein Assay kit (Thermo Scientific).
as §3

[9] = CO release in COP-1 fluorescence assay in buffer; format: physicochemical; conditions: in vitro conditions described in the examples, not specified further
Description: The release of CO from hybrids was assessed using COP-1, a fluorescent probe sensitive to CO. The fluorescence intensity of COP-1 (2 μM, Δex=475 nm) in buffer was measured in a cuvette to obtain a background fluorescence spectrum and spectra were then recorded immediately after addition of 50 μM tested compounds. The mean fluorescence intensity (MFI) of 3 independent reading was calculated using the fluorescence intensity values recorded at 507 nm after 60 min.

[10] = blood HbCO levels in mice after oral gavage; format: in vivo; conditions: oral gavage, 1, 3 and 6 hours after administration
Description: Male C57 BL/6J mice were used for all experiments (Janvier Labs, France). Animals received at 8 weeks of age were placed on a standard diet and allowed to acclimatize for 2 weeks on a 12 hr light/dark cycle. All experiments were performed in compliance with INSERM guidelines for the use of animals and approved by the institutional review board at Paris-Est Creteil Val de Marne University. Mice were administered by oral gavage with a single dose of the following: 1) 200 μl of sesame oil (vehicle, control group); 2) Compound A (3 mg in 200 μl sesame oil); 3) Compound B (3 mg in 200 μl sesame oil).
Mice were sacrificed 6 hr after treatment by cervical dislocation. Livers, lungs, hearts and brains were excised and snap frozen for western blot analysis. Tissue samples were homogenized in lysis buffer (150 mM sodium chloride, 1.0% Triton X-100, 0.5% sodium deoxycholate 0.1% sodium dodecyl sulphate, 50 mM Tris, pH 8.0). Lysates were centrifuged for 20 min at 15,000 g at 4° C. and supernatants were collected and stored at −80° C. for further analysis. […] The release of CO from compounds of the invention was assessed spectrophotometrically by measuring the conversion of deoxyhemoglobin to carbonmonoxy hemoglobin (HbCO). […] The percent of HbCO was then calculated based on the absorbances at 420 and 432 nm with the reported extinction coefficients for mouse blood. […]

[11] = test system: human THP-1 cells; assay: CO delivery to human THP-1 cells loaded with COP-1; format: cell-based; conditions: 10 μM, 15 min at 37° C.
Description: To detect whether the compounds delivered CO to cells, human THP-1 cells were initially suspended in Dulbecco Phosphate Buffer Solution (+Ca, +Mg; Gibco® Cell Culture, Life Technologies) and then treated with compounds at a concentration of 10 μM for 15 min at 37° C. in 5 ml polypropylene round-bottom tubes (BD Falcon, Dominique Dutscher). Cells were then incubated for 30 min with 1 μM COP-1. Intracellular fluorescence of COP-1 was measured using a CyAnTM ADP LX7 Analyzer (Beckman Coulter) as previously reported.

[12] = test system: HO-1; assay: cardiac HO-1 mRNA expression in mice after oral gavage; format: in vivo; conditions: 40 mg/kg oral gavage, 6 h
Description: (§6) FIG. 11 represents blood HbCO levels in vivo after compound C were administered to mice by oral gavage (FIG. 11A); mRNA expression of Nrf2 dependent genes (HO-1 and NQO-1) in the heart of mice after HbCO after administration of compound C (40 mg/kg) by oral gavage (FIG. 11B).

[13] = test system: NQO1; assay: cardiac NQO1 mRNA expression in mice after oral gavage; format: in vivo; conditions: 40 mg/kg oral gavage, 24 h
Description: as §6

[14] = test system: BV2 microglia cells; assay: reduced glutathione (GSH), DTNB colorimetric assay in BV2 microglia; format: cell-based, mouse; conditions: 10 μM
Description: The 5,5′ dithiobis-(2-nitrobenzoic acid) (DTNB) colorimetric assay was used for the measurement of reduced glutathione (GSH). Briefly, BV2 microglia cells were seeded in 6-well-plates and incubated with 10 μM hybrids and dimethyl fumarate (DMF, positive control) for 3, 6 and 24 h. At the end of the incubation period, cells were initially washed with phosphate buffers solution, then scraped in 600 μL of 2% (w/v) 5-sulposalicylic acid solution and transferred to a 1.5 ml microtube, and finally centrifuged for 5 min at 10,000×g. An aliquot of the supernatant (500 μl) was then reacted with 0.5 ml DTNB solution (0.3 M sodium phosphate buffer, 10 mM EDTA and 0.2 mM DTNB) and after 5 min the absorbance was read spectrophotometrically at 412 nm (extinction coefficient 14.3 mM^−1 cm^−1).

[15] = THP-1 cells, 6 h, different concentrations
[16] = identical concentrations (5 μM)

intracellular reduced glutathione (GSH) ([14]; 24 h) | SMILES | IL-1β production [1] | concentration from which an increase in HO-1 protein expression starts ([2]; THP-1 cells, 6 h) | nuclear expression of Nrf2 (summary statement) [3] | toxic effect toward H9c2 cardiomyocytes [4] | HO-1 protein expression [5] | toxicity toward human THP-1 cells [6] | activation of Nrf2 [7, 15] | Nrf2 activation compared with CORM-401 and DMF [7, 16] | HO-1 protein expression (summary statement) [8] | CO release (summary statement) [9] | HbCO levels [10] | CO release in cells (intracellular COP-1 fluorescence) [11] | HO-1 protein expression [2, 15] | HO-1 activation compared with CORM-401 and DMF [2, 16] | cardiac HO-1 mRNA expression [12] | cardiac NQO1 mRNA expression [13] | intracellular reduced glutathione (GSH) ([14]; 3 or 6 h)
 | CN(CC(=O)O)C(=S)[S-].[C-]#[O+].[C-]#[O+].[C-]#[O+].[C-]#[O+].[Mn] [CORM-401, reference compound] | no effect | 10 fold this concentration is not sufficient |  |  |  |  |  |  |  |  |  |  |  |  |  |  | 
 | COc1ccc(/C=C/C(=O)OCCN(C)C2=[S][Mn][S]2)cc1OC.[C-]#[O+].[C-]#[O+].[C-]#[O+].[C-]#[O+] [Compound C] | decreased IL-1β production | 1 µM | two fold increase | does not cause any visible toxic effect | induced an increase in HO-1 protein expression; also recorded: significant expression of HO-1 | do not show significant toxicity | strongly promoted the activation of Nrf2 | more potent than DMF and comparative compound CORM-401 | two fold increase | significant amount of CO | promotes an increase in HbCO levels | significant and high amount of CO | induction of HO-1 protein expression; also recorded: concentration-dependent increase in HO-1 protein expression | more potent than DMF and comparative compound CORM-401 | promotes an increase | promotes an increase | 
significant raise | COC(=O)/C=C/C(=O)OC [DMF, dimethyl fumarate] | no effect | 10 fold this concentration is not sufficient |  |  |  |  |  |  |  |  |  |  |  |  |  |  | raised the level of GSH from 6 h of treatment
